# Test results published in US6699849B1, “Cyclodextrin complexes of benzodiazepines” (Cyclops, ehf., priority 1998, dated 2004).
# Read-outs that look alike come from different tables or passages of the source.
# Key:
# [1] = Effect of pH and cyclodextrins on the fraction of the open form (diazepine ring-opening) of benzodiazepines; format: physicochemical
# Protocol: The cyclodextrin concentration was 10% (w/v) and the benzodiazepine concentration was 1×10^−4 M. The concentration of the closed form was determined immediately after dissolving the benzodiazepine in the aqueous cyclodextrin solution and again 24 hours later (i.e. after equilibration at 23° C.). Preliminary experiments had shown that equilibrium between the closed and the open form was attained within 3 hours at 23° C.
# [2] = Solubility of midazolam versus pH in buffer, 10% HPβCD and 10% HPβCD + 0.10% HPMC; format: physicochemical; settings: 10% (w/v) HPβCD + 0.10% (w/v) HPMC, FIG. 3
# Protocol: Midazolam is a water-insoluble weak base (pKa 6.2) which forms a somewhat water-soluble cation in acidic solution. Solubility (S) of midazolam at several different pH levels was determined in: a) pure aqueous buffer solutions (i.e. without HPβCD and HPMC); b) aqueous buffer solutions containing 10% (w/v) 2-hydroxypropyl-β-cyclodextrin (HPβCD) of molar substitution (MS)=0.3; and c) aqueous solutions containing 10% (w/v) 2-hydroxypropyl-β-cyclodextrin (HPβCD) of molar substitution (MS)=0.3 and 0.10% (w/v) hydroxypropyl methylcellulose (HPMC) 4000. Excess amount of the drug was added to the aqueous solution and the suspension formed was heated in a sealed container in an autoclave (120-140° C. for 20-40 minutes). After equilibration at room temperature (22-23° C.) for seven days, the suspension was filtered through a 0.45 μm membrane filter, diluted with aqueous methanolic solution and the amount of dissolved midazolam determined by a high pressure liquid chromatographic method (HPLC). FIG. 3 illustrates the effect of pH (i.e. the ring-opening) on the solubility of midazolam (pKa 6.2) in pure aqueous buffer solutions (●), aqueous buffer solutions containing 10% (w/v) HPβCD (▪), and aqueous buffer solutions containing both 10% (w/v) HPβCD and 0.10% (w/v) HPMC (♦) at room temperature.
# [3] = Solubility of midazolam versus pH with cyclodextrins and 10% (v/v) acetic acid; format: physicochemical
# Protocol: Excess amount of the drug was added to the aqueous HPβCD solution and the suspension formed was heated in a sealed container in an autoclave (120-140° C. for 20-40 minutes). After equilibration at room temperature (22-23° C.) for seven days, the suspension was filtered through a 0.45 μm membrane filter, diluted with aqueous methanolic solution and the amount of dissolved midazolam determined by a high pressure liquid chromatographic method (HPLC). FIG. 4 illustrates the effects of cyclodextrins, pH and 10% (v/v) acetic acid on the solubility of midazolam in aqueous solutions: pure aqueous buffer solution (▴); aqueous 10% (v/v) acetate solution (●); 10% (w/v) HPβCD solution containing 0.10% (w/v) HPMC in aqueous 10% (v/v) acetic acid solution (▪); 10% (w/v) aqueous SBEβCD solution in aqueous 10% (v/v) acetate (♦).
# [4] = First-order rate constant of diazepine ring-closure (regeneration of the benzodiazepine); format: physicochemical; settings: pH 7.5, 37° C.
# Protocol: The effect of cyclodextrins and organic solvents on the rate of diazepine ring-closure of several selected benzodiazepines was investigated. Stock solutions containing 1.0×10^−3 M of the benzodiazepine in 0.10 M aqueous hydrochloric acid solution (pH approx. 1.1) were prepared and stored at 37.0° C. The benzodiazepines were in the ring-open form in these stock solutions. Aqueous 0.50 M tris buffer (pH 7.50) solution was prepared. The observed first-order rate constant for the closing (i.e. formation) of the benzodiazepine ring was determined in the following reaction media: a) pure aqueous tris buffer solution; b) aqueous tris buffer solution containing 10% (w/v) cyclodextrin; c) tris buffer solution containing 10% (w/v) cyclodextrin and 10% (v/v) ethanol (EtOH); d) tris buffer solution containing 10% (w/v) cyclodextrin and 50% (v/v) EtOH; e) tris buffer solution containing 10% (w/v) cyclodextrin and 10% (v/v) dimethylsulfoxide (DMSO); and f) tris buffer solution containing 10% (w/v) cyclodextrin and 50% (w/v) DMSO. The stock solution (30 μl) was added to 1.50 ml of the reaction media which had previously been equilibrated to 37.0° C. and the first-order rate constant for the appearance of the closed form determined from the appearance of the closed form as observed on HPLC. Tables 5, 6 and 7 show the effects of cyclodextrins, EtOH and DMSO on the observed first-order rate constant for the regeneration of alprazolam, triazolam and midazolam, respectively. In pure aqueous buffer solutions, addition of EtOH and DMSO decreases somewhat the rate of ring closure, at least in the case of alprazolam and midazolam. Addition of cyclodextrin or the organic solvents have insignificant effect on the pH under these conditions. The dielectric constant of the reaction medium will, however, decrease upon addition of the organic solvents. It is possible that this decrease in the dielectric constant will reduce the ability of the reaction media to stabilize the transition state which could explain the decrease in the observed rate constant. […] The cyclodextrins formed stable complexes with the ring-open form of the drug and, thus, the rate decreased upon addition of cyclodextrin. […] EtOH and DMSO will compete with the diazepine ring-open form for a space in the cyclodextrin cavity resulting in decreased complexation.
# [5] = cited from earlier work
# [6] = cited from earlier work; for solubility in water: room temperature (25° C.)
# [7] = format: physicochemical
# Text: It is possible to enhance the cyclodextrin (CD) complexation efficacy, or efficiency, of drugs (D), and other “guest” molecules, by either increasing the apparent stability constant (KC) of the drug-cyclodextrin complex (D-CD) or increasing the apparent intrinsic solubility (S0) of the drug. For example, KC can be increased by addition of water-soluble polymers to the aqueous complexation media and S0 can be increased by ionization of the drug molecule, as described previously. […] On the other hand, if the drug-cyclodextrin complexes are prepared under conditions which ensure enhanced complexation and if the complexation efficiency decreases upon administration, then enhanced drug availability will be observed. Thus, the present invention involves: i) enhancement of the complexation efficiency and ii) reduction of the complexation efficiency after administration. For example, it is possible to enhance the complexation efficiency of many ionizable drugs by preparing the complexes at a pH where the drug is ionized but obtain decreased efficiency upon administration due to pH changes and consequent decreased ionization. One example of such a drug is phenytoin (pKa 8.1). […]
smiles,measurement,setting,value
"Cc1ncc2n1-c1ccc(Cl)cc1C(c1ccccc1F)=NC2 [midazolam, 8-chloro-6-(2-fluorophenyl)-1-methyl-4H-imidazo[1,5-a][1,4]benzodiazepine]",Fraction open,"[1]; 10% (w/v) HPβCD, pH 2, approx. 23° C.",0.56
same,Fraction open,"[1]; 10% (w/v) HPβCD, pH 3, approx. 23° C.",0.18
same,Fraction open,"[1]; 10% (w/v) HPβCD, pH 4, approx. 23° C.",0.23
same,Fraction open,"[1]; 10% (w/v) SBEβCD, pH 2, approx. 23° C.",0.81
same,Fraction open,"[1]; 10% (w/v) SBEβCD, pH 3, approx. 23° C.",0.39
same,Fraction open,"[1]; 10% (w/v) SBEβCD, pH 4, approx. 23° C.",0.11
same,Fraction open,"[1]; 10% (w/v) αCD, pH 2, approx. 23° C.",0.79
same,Fraction open,"[1]; 10% (w/v) αCD, pH 3, approx. 23° C.",0.32
same,Fraction open,"[1]; 10% (w/v) αCD, pH 4, approx. 23° C.",0.10
same,Fraction open,"[1]; 10% (w/v) γCD, pH 2, approx. 23° C.",0.61
same,Fraction open,"[1]; 10% (w/v) γCD, pH 3, approx. 23° C.",0.21
same,Fraction open,"[1]; 10% (w/v) γCD, pH 4, approx. 23° C.",0.17
same,Fraction open,"[1]; no cyclodextrin, pH 2, approx. 23° C.",0.74
same,Fraction open,"[1]; no cyclodextrin, pH 3, approx. 23° C.",0.28
same,Fraction open,"[1]; no cyclodextrin, pH 4, approx. 23° C.",0.18
same,effect of addition of HPMC on complexation efficiency,[2],significantly improves
same,effect of 10% (v/v) acetic acid co-solvent on fraction of the open ring form,[3],small decrease
same,effect of addition of 10% (v/v) acetic acid on complexation,"[3]; cyclodextrin solutions, FIG. 4",significantly improves
same,"observed first-order rate constant, ring formation","[4]; 10% HPβCD, 10% DMSO",0.0336 min⁻¹
same,"observed first-order rate constant, ring formation","[4]; 10% HPβCD, 10% EtOH",0.0386 min⁻¹
same,"observed first-order rate constant, ring formation","[4]; 10% HPβCD, 50% DMSO",0.084 min⁻¹
same,"observed first-order rate constant, ring formation","[4]; 10% HPβCD, 50% EtOH",0.0653 min⁻¹
same,"observed first-order rate constant, ring formation","[4]; 10% HPβCD, pure water",0.0277 min⁻¹
same,"observed first-order rate constant, ring formation","[4]; 10% RMβCD, 10% DMSO",0.0494 min⁻¹
same,"observed first-order rate constant, ring formation","[4]; 10% RMβCD, 10% EtOH",0.0424 min⁻¹
same,"observed first-order rate constant, ring formation","[4]; 10% RMβCD, 50% DMSO",0.0848 min⁻¹
same,"observed first-order rate constant, ring formation","[4]; 10% RMβCD, 50% EtOH",0.0699 min⁻¹
same,"observed first-order rate constant, ring formation","[4]; 10% RMβCD, pure water",0.0305 min⁻¹
same,"observed first-order rate constant, ring formation","[4]; 10% SBEβCD, 10% DMSO",0.0224 min⁻¹
same,"observed first-order rate constant, ring formation","[4]; 10% SBEβCD, 10% EtOH",0.033 min⁻¹
same,"observed first-order rate constant, ring formation","[4]; 10% SBEβCD, 50% DMSO",0.0855 min⁻¹
same,"observed first-order rate constant, ring formation","[4]; 10% SBEβCD, 50% EtOH",0.065 min⁻¹
same,"observed first-order rate constant, ring formation","[4]; 10% SBEβCD, pure water",0.013 min⁻¹
same,"observed first-order rate constant, ring formation","[4]; No CD, 10% DMSO",0.138 min⁻¹
same,"observed first-order rate constant, ring formation","[4]; No CD, 10% EtOH",0.126 min⁻¹
same,"observed first-order rate constant, ring formation","[4]; No CD, 50% DMSO",0.109 min⁻¹
same,"observed first-order rate constant, ring formation","[4]; No CD, 50% EtOH",0.0841 min⁻¹
same,"observed first-order rate constant, ring formation","[4]; No CD, pure water",0.179 min⁻¹
"O=C1NC(=O)C(c2ccccc2)(c2ccccc2)N1 [phenytoin, 5,5-diphenyl-2,4-imidazolidinedione]",pKa,[5],8.1
same,solubility with 25% (w/v) 2-hydroxypropyl-β-cyclodextrin,[6]; pH 5,5000 µg/mL
same,solubility with 25% (w/v) 2-hydroxypropyl-β-cyclodextrin,[6]; pH 8,6400 µg/mL
same,solubility in water,[6]; pH 5,18 µg/mL
same,solubility in water,[6]; pH 8,32 µg/mL
same,solubility enhancement by 25% (w/v) 2-hydroxypropyl-β-cyclodextrin,[7]; pH 5,280 fold
same,solubility enhancement by 25% (w/v) 2-hydroxypropyl-β-cyclodextrin,[7]; pH 8,200 fold
